Test systems include CCRF-CEM leukemia; HCT-116 colon; HL-60(TB) leukemia; HOP-62 NSCLC; HS 578T breast; HT29 colon; K-562 leukemia; NCI-H460 lung; SF-268 CNS; SNB-75 CNS.
Holding throughout (test): growth of human tumour cells (NCI), 48 h

Each structure is given as a SMILES string. “And” between values parts separate entries of the source, which are not always exact repeats. Identical values can stand only once.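 Growth conditions: 96-well plates. Treatment: test compound, 48 hours, 5 concentrations. Analysis: linear interpolation between bracketing concentrations; unreached endpoints set to highest concentration. GI50 is the concentration that inhibits growth by half. TGI marks complete inhibition of growth.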

Take `CNCc1cccc2c1OCCOCCOCCC(C)S(=O)(=O)c1ccc(cc1)-c1cnc(N)c(n1)C(=O)N2` (centres undefined): the GI50 in the assay on CCRF-CEM leukemia was 0.67 µM; with HCT-116 colon, 1.18 µM; in the assay with HL-60(TB) leukemia, 1.81 µM; in the assay on HOP-62 NSCLC, 1.14 µM; in the assay with HS 578T breast, 0.602 µM; in the assay with HT29 colon, 1.44 µM. In addition, the GI50 in the assay with K-562 leukemia was 1.5 µM; with NCI-H460 lung, 1.12 µM; in the assay on SF-268 CNS it was 1.18 µM; in the assay on SNB-75 CNS it was 0.119 µM. The TGI turned out to be 7.2 µM in the assay with CCRF-CEM leukemia; 3.35 µM in the assay with HCT-116 colon; 3.83 µM in the assay with HL-60(TB) leukemia; 4.82 µM with HOP-62 NSCLC; 3.09 µM in the assay with HS 578T breast; 8.99 µM with HT29 colon. The TGI with K-562 leukemia was found to be 10.4 µM; in the assay with NCI-H460 lung it was 2.73 µM; in the assay on SF-268 CNS it was 3.33 µM; in the assay with SNB-75 CNS, 1.59 µM.
Consider `CCN1CCN(c2nc(NNC(=O)c3ccccc3)nc(N3CCN(C(c4ccccc4)c4ccccc4)CC3)n2)CC1`, for which the GI50 is 2.05 µM in the assay on CCRF-CEM leukemia; 1.78 µM with HCT-116 colon; 1.76 µM in the assay with HL-60(TB) leukemia; 12.7 µM with HOP-62 NSCLC; 3.3 µM in the assay with HS 578T breast; 2.95 µM with HT29 colon. The GI50 was 1.77 µM in the assay with K-562 leukemia, 2.1 µM in the assay on NCI-H460 lung, 11.6 µM with SF-268 CNS and 3.96 µM in the assay with SNB-75 CNS. Also, the TGI worked out at 6.36 µM in the assay with CCRF-CEM leukemia; 3.41 µM in the assay with HCT-116 colon; 3.99 µM in the assay on HL-60(TB) leukemia; 31.8 µM in the assay with HOP-62 NSCLC; 22.3 µM in the assay with HS 578T breast; 13.4 µM in the assay with HT29 colon. Moreover, the TGI with K-562 leukemia amounted to 4.32 µM; with NCI-H460 lung, 4.63 µM; in the assay with SF-268 CNS, 32.7 µM; with SNB-75 CNS, 18.1 µM.
As to `CC1OC(OC2C(O[C@H]3CC[C@@]4(C)C(=CC[C@H]5[C@@H]6C[C@@H]7O[C@]8(CC[C@@H](C)CO8)[C@@H](C)[C@@H]7[C@@]6(C)CC[C@@H]54)C3)OC(CO)C(OC3OC(CO)C(O)C3O)C2O)C(O)C(O)C1O` (some centres undefined), the TGI in the assay with CCRF-CEM leukemia was 0.413 µM; in the assay on HCT-116 colon, 1.6 µM and 2.52 µM; in the assay on HL-60(TB) leukemia, 1.77 µM and 1.89 µM; in the assay on HOP-62 NSCLC, 1.84 µM and 2.34 µM; in the assay with HS 578T breast, 1.78 µM and 2.24 µM; in the assay on HT29 colon, 1.62 µM and 2.17 µM. In addition, the TGI is 50 µM with K-562 leukemia; 1.53 µM with NCI-H460 lung; 1.61 µM and 2.03 µM in the assay on SF-268 CNS; 1.62 µM in the assay on SNB-75 CNS. Also, the GI50 in the assay on HCT-116 colon is 1.26 µM; in the assay on HL-60(TB) leukemia it was 0.506 µM; with HOP-62 NSCLC, 1.13 µM; with HT29 colon, 1.01 µM.
Take `C=C(Cn1c2ccccc2c(=O)c2ccccc21)c1ccc(C(=O)Nc2ccccc2N)cc1`: the GI50 with CCRF-CEM leukemia was 0.224 µM; in the assay on HCT-116 colon, 4.5 µM; in the assay on HL-60(TB) leukemia, 0.662 µM; with HOP-62 NSCLC, more than 27.3 µM; in the assay with HS 578T breast, more than 100 µM; in the assay on HT29 colon, 2.52 µM. Also, the GI50 in the assay on K-562 leukemia is 1.35 µM; in the assay on NCI-H460 lung, 4.72 µM; in the assay with SF-268 CNS it was 5.74 µM; in the assay on SNB-75 CNS, 1.08 µM. The TGI with CCRF-CEM leukemia was 19.2 µM; with HCT-116 colon, more than 100 µM; in the assay on HL-60(TB) leukemia, more than 26.9 µM; in the assay with HOP-62 NSCLC it was more than 100 µM; in the assay on HS 578T breast, more than 100 µM; in the assay on HT29 colon, more than 33.6 µM. For the same compound, the TGI in the assay on K-562 leukemia was more than 100 µM; in the assay with NCI-H460 lung it was more than 100 µM; in the assay with SF-268 CNS, more than 100 µM; with SNB-75 CNS it was more than 28 µM.
Consider `NC(N)=N/N=C/c1c(-c2ccncc2)nc2sc(Cl)cn12`, for which the GI50 in the assay on CCRF-CEM leukemia is 2 µM; in the assay with HCT-116 colon, 2.55 µM; in the assay with HL-60(TB) leukemia it was 19 µM; in the assay with HOP-62 NSCLC, 15.2 µM; in the assay on HS 578T breast, 18.8 µM; in the assay on HT29 colon, 17.1 µM. The GI50 in the assay on K-562 leukemia is 2.96 µM; in the assay with NCI-H460 lung it was 27.5 µM; in the assay on SF-268 CNS, 5.31 µM; in the assay on SNB-75 CNS it was 4.89 µM. Also, the TGI in the assay on CCRF-CEM leukemia was 4.58 µM; with HCT-116 colon, 6.22 µM; with HL-60(TB) leukemia it was 45 µM; in the assay with HOP-62 NSCLC, 37.2 µM; in the assay with HS 578T breast it was 41.7 µM; with HT29 colon, more than 51.3 µM. In addition, the TGI is 13.3 µM in the assay with K-562 leukemia, more than 59.2 µM with NCI-H460 lung, 15.3 µM in the assay with SF-268 CNS and 18.9 µM in the assay with SNB-75 CNS.
On to `COC(=O)[C@H](Cc1cn(C)cn1)NC(=O)[C@@H](NC(=O)Nc1cc(C(F)(F)F)cc(C(F)(F)F)c1)C(C)C`, for which the GI50 is 3.15 µM in the assay on CCRF-CEM leukemia; 1.82 µM in the assay on HCT-116 colon; more than 10 µM in the assay with HL-60(TB) leukemia; 2.91 µM in the assay on HOP-62 NSCLC; 4.83 µM in the assay with HS 578T breast; 2.23 µM in the assay with HT29 colon. The GI50 was 4.74 µM with K-562 leukemia, 3.53 µM with NCI-H460 lung, 2.02 µM in the assay with SF-268 CNS and 6.44 µM in the assay on SNB-75 CNS. Moreover, the TGI was more than 10 µM with CCRF-CEM leukemia; 3.55 µM in the assay on HCT-116 colon; more than 10 µM in the assay on HL-60(TB) leukemia; 9.07 µM in the assay on HOP-62 NSCLC; more than 10 µM with HS 578T breast; 4.89 µM in the assay with HT29 colon. Also, the TGI with K-562 leukemia was more than 10 µM; in the assay with NCI-H460 lung, more than 10 µM; in the assay with SF-268 CNS, 4.87 µM; in the assay with SNB-75 CNS it was more than 10 µM.
As to `COc1ccc(Cc2nc3cc(OC)c(OC)cc3c(=O)[nH]2)cc1`, the GI50 in the assay on CCRF-CEM leukemia is 6.53 µM; in the assay on HCT-116 colon it was 4.78 µM; with HL-60(TB) leukemia, 1.78 µM; with HOP-62 NSCLC, 8.69 µM; with HS 578T breast, 9.98 µM; with HT29 colon it was 4.73 µM. Moreover, the GI50 in the assay with K-562 leukemia was 34.3 µM; in the assay with NCI-H460 lung it was 15.3 µM; in the assay with SF-268 CNS, 3.52 µM; with SNB-75 CNS, 9.79 µM. The TGI with CCRF-CEM leukemia is more than 100 µM; with HCT-116 colon, more than 100 µM; in the assay with HL-60(TB) leukemia, 4.8 µM; with HOP-62 NSCLC, more than 81.5 µM; in the assay on HS 578T breast, 99.2 µM; in the assay with HT29 colon, more than 100 µM. The TGI was more than 100 µM in the assay with K-562 leukemia, more than 100 µM in the assay with NCI-H460 lung, more than 45.6 µM with SF-268 CNS and 40.1 µM in the assay on SNB-75 CNS.
For the compound `Nc1ncnc2c1nc(Cl)n2C1OC(CO)C(O)C1O` (centres undefined), the TGI was more than 25.5 µM in the assay on CCRF-CEM leukemia; more than 100 µM with HCT-116 colon; 3.97 µM in the assay on HL-60(TB) leukemia; more than 100 µM in the assay with HOP-62 NSCLC; more than 100 µM with HS 578T breast; more than 83 µM with HT29 colon. Moreover, the TGI is more than 100 µM in the assay with K-562 leukemia, more than 100 µM in the assay on NCI-H460 lung, more than 100 µM in the assay with SF-268 CNS and more than 56.6 µM in the assay with SNB-75 CNS.

For the origin of these results see PubChem BioAssay (NCI).
